Laboratory results from patent US20240226228A1, “ANTIMICROBIAL PEPTOID HAVING IMPROVED SELECTIVITY AND ANTIMICROBIAL COMPOSITION COMPRISING SAME” (priority 2021, published 2024).
In brackets after ≈: the same amount, converted by molar mass. Where two headings read alike, the source gives them in different places. Where a SMILES comes first, the peptide text is derived from it. [ ]: non-standard residue; d: D form. Gly(N(CH2)2(3-indolyl)) = O=C(O)CNCCc1c[nH]c2ccccc12; Gly(N-CH2CH2-imidazol-4-yl) = O=C(O)CNCCc1c[nH]cn1; Nspe = C[C@H](NCC(=O)O)c1ccccc1; Nlys = NCCCCNCC(=O)O

Columns and labels:
S. aureus ATCC 25923 = tested on: S. aureus ATCC 25923
Summary of the method: (§1)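 Cation-adjusted MHB2 cultures (18 h, subcultured 4 h) adjusted to 2×10^5–5×10^5 CFU/mL in medium with 0.02% BSA and 0.001% acetic acid.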

E. coli ATCC25922 = tested on: E. coli ATCC25922
Summary of the method: as §1

red blood cells = test: Hemolysis assay; assay type: cell-based, Sprague-Dawley mouse
Summary of the method: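 Peptoid is mixed with 10% (v/v) PBS-washed erythrocytes (male Sprague-Dawley […], 13 weeks) and held 1 h at 37 °C. Hemolysis is calculated from 540 nm absorbance of the supernatant, with PBS as 0% and Triton X-100 as 100%.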

[1] = Tables 11-13, 24 hours at 37° C., maximum concentration 25 μM

With `C[C@H](NCC(=O)N(CCCCN)CC(=O)N(CC(=O)N(CC(=O)N(CCCCN)CC(=O)N(CC(=O)N(CC(=O)N(CCCCN)CC(=O)N(CC(=O)N(CC(=O)N(CCCCN)CC(=O)N(CC(N)=O)[C@@H](C)c1ccccc1)[C@@H](C)c1ccccc1)[C@@H](C)c1ccccc1)[C@@H](C)c1ccccc1)[C@@H](C)c1ccccc1)[C@@H](C)c1ccccc1)[C@@H](C)c1ccccc1)c1ccccc1` [Peptoid 48] (H-[Nspe][Nlys][Nspe][Nspe][Nlys][Nspe][Nspe][Nlys][Nspe][Nspe][Nlys][Nspe]-NH2) the “MIC S. aureus ATCC 25923” value (S. aureus ATCC 25923; [1]) was 3.1 µM (≈ 5.64 µg/mL), the “MIC E. coli ATCC25922” value (E. coli ATCC25922; [1]) was 12.5 µM (≈ 22.7 µg/mL) and the HC10 (red blood cells) was 25.7 µM. The HC50 (red blood cells) was 48.4 µM and the “Hmax (100 μM)” value (red blood cells) was 79.9 ± 3.6%.

In the case of `C[C@@H](c1ccccc1)N(CC(N)=O)C(=O)CN(CCCCN)C(=O)CN(CCCCN)C(=O)CN(C(=O)CN(C(=O)CN(CCCCN)C(=O)CN(C(=O)CN(C(=O)CN(CCCCN)C(=O)CN(CCc1c[nH]c2ccccc12)C(=O)CN(CCc1c[nH]c2ccccc12)C(=O)CNCCc1c[nH]cn1)[C@@H](C)c1ccccc1)[C@@H](C)c1ccccc1)[C@@H](C)c1ccccc1)[C@@H](C)c1ccccc1` [Peptoid 72] (H-[Gly(N-CH2CH2-imidazol-4-yl)][Gly(N(CH2)2(3-indolyl))][Gly(N(CH2)2(3-indolyl))][Nlys][Nspe][Nspe][Nlys][Nspe][Nspe][Nlys][Nlys][Nspe]-NH2), the “MIC S. aureus ATCC 25923” value (S. aureus ATCC 25923; ATCC 25923) is reported as 6.3 µM (≈ 11.9 µg/mL), the “MIC E. coli ATCC25922” value (E. coli ATCC25922; ATCC25922) is reported as 6.3 µM (≈ 11.9 µg/mL) and the HD10 (red blood cells) is reported as 88.9. The HD50 (red blood cells) was > 100.0 and the “Hmax (100 μM)” value (red blood cells) was 11.8 ± 1.1.

With `C[C@@H](c1ccccc1)N(CC(N)=O)C(=O)CN(CCCCN)C(=O)CN(CCCCN)C(=O)CN(C(=O)CN(C(=O)CN(CCCCN)C(=O)CN(C(=O)CN(C(=O)CN(CCc1c[nH]cn1)C(=O)CN(CCc1c[nH]c2ccccc12)C(=O)CN(CCc1c[nH]c2ccccc12)C(=O)CNCCCCN)[C@@H](C)c1ccccc1)[C@@H](C)c1ccccc1)[C@@H](C)c1ccccc1)[C@@H](C)c1ccccc1` [Peptoid 73] (H-[Nlys][Gly(N(CH2)2(3-indolyl))][Gly(N(CH2)2(3-indolyl))][Gly(N-CH2CH2-imidazol-4-yl)][Nspe][Nspe][Nlys][Nspe][Nspe][Nlys][Nlys][Nspe]-NH2) the “MIC S. aureus ATCC 25923” value (S. aureus ATCC 25923; ATCC 25923) was 3.1 µM (≈ 5.85 µg/mL), the “MIC E. coli ATCC25922” value (E. coli ATCC25922; ATCC25922) was 6.3 µM (≈ 11.9 µg/mL) and the HD10 (red blood cells) was >100.0/>100.0. The HD50 (red blood cells) was >100.0/>100.0 and the “Hmax (100 μM)” value (red blood cells) was 10.0 ± 0.3.

In the case of `C[C@@H](c1ccccc1)N(CC(N)=O)C(=O)CN(CCCCN)C(=O)CN(CCCCN)C(=O)CN(C(=O)CN(C(=O)CN(CCc1c[nH]cn1)C(=O)CN(C(=O)CN(C(=O)CN(CCCCN)C(=O)CN(CCc1c[nH]c2ccccc12)C(=O)CN(CCc1c[nH]c2ccccc12)C(=O)CNCCCCN)[C@@H](C)c1ccccc1)[C@@H](C)c1ccccc1)[C@@H](C)c1ccccc1)[C@@H](C)c1ccccc1` [Peptoid 74] (H-[Nlys][Gly(N(CH2)2(3-indolyl))][Gly(N(CH2)2(3-indolyl))][Nlys][Nspe][Nspe][Gly(N-CH2CH2-imidazol-4-yl)][Nspe][Nspe][Nlys][Nlys][Nspe]-NH2), the “MIC S. aureus ATCC 25923” value (S. aureus ATCC 25923; ATCC 25923) is reported as 3.1 µM (≈ 5.85 µg/mL), the “MIC E. coli ATCC25922” value (E. coli ATCC25922; ATCC25922) is reported as 6.3 µM (≈ 11.9 µg/mL) and the HD10 (red blood cells) is reported as 81.7. The HD50 (red blood cells) was > 100.0 and the “Hmax (100 μM)” value (red blood cells) was 14.2 ± 0.3.

In the case of `C[C@@H](c1ccccc1)N(CC(N)=O)C(=O)CN(CCCCN)C(=O)CN(CCc1c[nH]cn1)C(=O)CN(C(=O)CN(C(=O)CN(CCCCN)C(=O)CN(C(=O)CN(C(=O)CN(CCCCN)C(=O)CN(CCc1c[nH]c2ccccc12)C(=O)CN(CCc1c[nH]c2ccccc12)C(=O)CNCCCCN)[C@@H](C)c1ccccc1)[C@@H](C)c1ccccc1)[C@@H](C)c1ccccc1)[C@@H](C)c1ccccc1` [Peptoid 75] (H-[Nlys][Gly(N(CH2)2(3-indolyl))][Gly(N(CH2)2(3-indolyl))][Nlys][Nspe][Nspe][Nlys][Nspe][Nspe][Gly(N-CH2CH2-imidazol-4-yl)][Nlys][Nspe]-NH2), the “MIC S. aureus ATCC 25923” value (S. aureus ATCC 25923; ATCC 25923) is reported as 6.3 µM (≈ 11.9 µg/mL), the “MIC E. coli ATCC25922” value (E. coli ATCC25922; ATCC25922) is reported as 6.3 µM (≈ 11.9 µg/mL) and the HD10 (red blood cells) is reported as 68.0. For the same compound, the HD50 (red blood cells) was > 100.0 and the “Hmax (100 μM)” value (red blood cells) was 18.3 ± 1.1.

In the case of `C[C@@H](c1ccccc1)N(CC(N)=O)C(=O)CN(CCc1c[nH]cn1)C(=O)CN(CCCCN)C(=O)CN(C(=O)CN(C(=O)CN(CCCCN)C(=O)CN(C(=O)CN(C(=O)CN(CCCCN)C(=O)CN(CCc1c[nH]c2ccccc12)C(=O)CN(CCc1c[nH]c2ccccc12)C(=O)CNCCCCN)[C@@H](C)c1ccccc1)[C@@H](C)c1ccccc1)[C@@H](C)c1ccccc1)[C@@H](C)c1ccccc1` [Peptoid 76] (H-[Nlys][Gly(N(CH2)2(3-indolyl))][Gly(N(CH2)2(3-indolyl))][Nlys][Nspe][Nspe][Nlys][Nspe][Nspe][Nlys][Gly(N-CH2CH2-imidazol-4-yl)][Nspe]-NH2), the “MIC S. aureus ATCC 25923” value (S. aureus ATCC 25923; ATCC 25923) is reported as 6.3 µM (≈ 11.9 µg/mL), the “MIC E. coli ATCC25922” value (E. coli ATCC25922; ATCC25922) is reported as 6.3 µM (≈ 11.9 µg/mL) and the HD10 (red blood cells) is reported as >100.0/>100.0. For the same compound, the HD50 (red blood cells) was >100.0/>100.0 and the “Hmax (100 μM)” value (red blood cells) was 10.1 ± 0.7.

In the case of `C[C@@H](c1ccccc1)N(CC(=O)N(CCc1c[nH]cn1)CC(=O)N(CCc1c[nH]c2ccccc12)CC(=O)N(CCc1c[nH]c2ccccc12)CC(N)=O)C(=O)CN(CCCCN)C(=O)CN(CCCCN)C(=O)CN(C(=O)CN(C(=O)CN(CCCCN)C(=O)CN(C(=O)CN(C(=O)CNCCCCN)[C@@H](C)c1ccccc1)[C@@H](C)c1ccccc1)[C@@H](C)c1ccccc1)[C@@H](C)c1ccccc1` [Peptoid 77] (H-[Nlys][Nspe][Nspe][Nlys][Nspe][Nspe][Nlys][Nlys][Nspe][Gly(N-CH2CH2-imidazol-4-yl)][Gly(N(CH2)2(3-indolyl))][Gly(N(CH2)2(3-indolyl))]-NH2), the “MIC S. aureus ATCC 25923” value (S. aureus ATCC 25923; ATCC 25923) is reported as 6.3 µM (≈ 11.9 µg/mL), the “MIC E. coli ATCC25922” value (E. coli ATCC25922; ATCC25922) is reported as 12.5 µM (≈ 23.6 µg/mL) and the HD10 (red blood cells) is reported as >100.0/>100.0. For the same compound, the HD50 (red blood cells) was >100.0/>100.0 and the “Hmax (100 μM)” value (red blood cells) was 3.2 ± 0.3.

For `C[C@@H](c1ccccc1)N(CC(=O)N(CCCCN)CC(=O)N(CCc1c[nH]c2ccccc12)CC(=O)N(CCc1c[nH]c2ccccc12)CC(N)=O)C(=O)CN(CCc1c[nH]cn1)C(=O)CN(CCCCN)C(=O)CN(C(=O)CN(C(=O)CN(CCCCN)C(=O)CN(C(=O)CN(C(=O)CNCCCCN)[C@@H](C)c1ccccc1)[C@@H](C)c1ccccc1)[C@@H](C)c1ccccc1)[C@@H](C)c1ccccc1` [Peptoid 78] (H-[Nlys][Nspe][Nspe][Nlys][Nspe][Nspe][Nlys][Gly(N-CH2CH2-imidazol-4-yl)][Nspe][Nlys][Gly(N(CH2)2(3-indolyl))][Gly(N(CH2)2(3-indolyl))]-NH2), the “MIC S. aureus ATCC 25923” value (S. aureus ATCC 25923; ATCC 25923) was 6.3 µM (≈ 11.9 µg/mL), the “MIC E. coli ATCC25922” value (E. coli ATCC25922; ATCC25922) was 6.3 µM (≈ 11.9 µg/mL) and the HD10 (red blood cells) was >100.0/>100.0. The HD50 (red blood cells) was >100.0/>100.0 and the “Hmax (100 μM)” value (red blood cells) was 5.2 ± 0.2.

With `C[C@@H](c1ccccc1)N(CC(=O)N(CCCCN)CC(=O)N(CCc1c[nH]c2ccccc12)CC(=O)N(CCc1c[nH]c2ccccc12)CC(N)=O)C(=O)CN(CCCCN)C(=O)CN(CCc1c[nH]cn1)C(=O)CN(C(=O)CN(C(=O)CN(CCCCN)C(=O)CN(C(=O)CN(C(=O)CNCCCCN)[C@@H](C)c1ccccc1)[C@@H](C)c1ccccc1)[C@@H](C)c1ccccc1)[C@@H](C)c1ccccc1` [Peptoid 79] (H-[Nlys][Nspe][Nspe][Nlys][Nspe][Nspe][Gly(N-CH2CH2-imidazol-4-yl)][Nlys][Nspe][Nlys][Gly(N(CH2)2(3-indolyl))][Gly(N(CH2)2(3-indolyl))]-NH2) the “MIC S. aureus ATCC 25923” value (S. aureus ATCC 25923; ATCC 25923) was 6.3 µM (≈ 11.9 µg/mL), the “MIC E. coli ATCC25922” value (E. coli ATCC25922; ATCC25922) was 6.3 µM (≈ 11.9 µg/mL) and the HD10 (red blood cells) was >100.0/>100.0. The HD50 (red blood cells) was >100.0/>100.0 and the “Hmax (100 μM)” value (red blood cells) was 8.5 ± 0.6.

With `C[C@@H](c1ccccc1)N(CC(=O)N(CCCCN)CC(=O)N(CCc1c[nH]c2ccccc12)CC(=O)N(CCc1c[nH]c2ccccc12)CC(N)=O)C(=O)CN(CCCCN)C(=O)CN(CCCCN)C(=O)CN(C(=O)CN(C(=O)CN(CCc1c[nH]cn1)C(=O)CN(C(=O)CN(C(=O)CNCCCCN)[C@@H](C)c1ccccc1)[C@@H](C)c1ccccc1)[C@@H](C)c1ccccc1)[C@@H](C)c1ccccc1` [Peptoid 80] (H-[Nlys][Nspe][Nspe][Gly(N-CH2CH2-imidazol-4-yl)][Nspe][Nspe][Nlys][Nlys][Nspe][Nlys][Gly(N(CH2)2(3-indolyl))][Gly(N(CH2)2(3-indolyl))]-NH2) the “MIC S. aureus ATCC 25923” value (S. aureus ATCC 25923; ATCC 25923) was 6.3 µM (≈ 11.9 µg/mL), the “MIC E. coli ATCC25922” value (E. coli ATCC25922; ATCC25922) was 12.5 µM (≈ 23.6 µg/mL) and the HD10 (red blood cells) was >100.0/>100.0. For the same compound, the HD50 (red blood cells) was >100.0/>100.0 and the “Hmax (100 μM)” value (red blood cells) was 4.0 ± 0.5.

In the case of `C[C@@H](c1ccccc1)N(CC(=O)N(CCCCN)CC(=O)N(CCc1c[nH]c2ccccc12)CC(=O)N(CCc1c[nH]c2ccccc12)CC(N)=O)C(=O)CN(CCCCN)C(=O)CN(CCCCN)C(=O)CN(C(=O)CN(C(=O)CN(CCCCN)C(=O)CN(C(=O)CN(C(=O)CNCCc1c[nH]cn1)[C@@H](C)c1ccccc1)[C@@H](C)c1ccccc1)[C@@H](C)c1ccccc1)[C@@H](C)c1ccccc1` [Peptoid 81] (H-[Gly(N-CH2CH2-imidazol-4-yl)][Nspe][Nspe][Nlys][Nspe][Nspe][Nlys][Nlys][Nspe][Nlys][Gly(N(CH2)2(3-indolyl))][Gly(N(CH2)2(3-indolyl))]-NH2), the “MIC S. aureus ATCC 25923” value (S. aureus ATCC 25923; ATCC 25923) is reported as 6.3 µM (≈ 11.9 µg/mL), the “MIC E. coli ATCC25922” value (E. coli ATCC25922; ATCC25922) is reported as 6.3 µM (≈ 11.9 µg/mL) and the HD10 (red blood cells) is reported as >100.0/>100.0. For the same compound, the HD50 (red blood cells) was >100.0/>100.0 and the “Hmax (100 μM)” value (red blood cells) was 5.7 ± 0.1.
